# “And” between values parts separate entries of the source, which are not always exact repeats. Equal entries are not always repeated. Where two headings read alike, the source gives them in different places.
# Key:
# [1] = In vivo bioconversion of CBT succinate in 50% PEG300 formulation, IV, mouse plasma by LC-MS/MS; parameters: species or system ICR male mice; conditions: 15 mg/kg IV
# Method: The bioanalysis results are tabulated as Tables 1 to 3 below. The values of mean and standard deviation (SD) are calculated. BLOQ means “below the limit of quantification”, and N/A means “not available”. Normal saline used herein is 0.90% sodium chloride aqueous solution.
# C0: Initial concentration; • 3. […] AUC/D: AUC divided by dose; • 6.
# [2] = Hydrolysis of CBT succinate dissolved in the aqueous preclinical formulation; type: physicochemical; conditions: 50% PEG300 in normal saline
# [3] = Saturation test of CBT succinate-SBECD (1:2.2), solubility; type: physicochemical; conditions: aqueous buffer, thermodynamic from solid, excess complex dissolved by 20 mM pH 8.0 phosphate buffer, read-out: CBT succinate water solubility
# Source text: For the CBT succinate-SBECD (1:2.2), a saturation test was further carried out.
# [4] = even in the mixed solvent of water and organic reagent; cited from earlier work
# [5] = analyte Cabazitaxel in mouse plasma, CBT succinate in 50% PEG300 formulation, time 24 h
# [6] = male, ICR, mouse plasma, CBT succinate in 50% PEG300 formulation
# [7] = mouse plasma, CBT succinate in 50% PEG300 formulation
# [8] = mouse plasma, CBT succinate in 50% PEG300 formulation, time 4 h
# [9] = mouse plasma, CBT succinate in 50% PEG300 formulation, time 8 h
# [10] = mouse plasma, CBT succinate in 50% PEG300 formulation, time 24 h
smiles,measurement,setting,value
"CO[C@H]1C(=O)[C@]2(C)[C@@H](OC)C[C@H]3OC[C@@]3(OC(C)=O)[C@H]2[C@H](OC(=O)c2ccccc2)[C@]2(O)C[C@H](OC(=O)[C@H](OC(=O)CCC(=O)O)[C@@H](NC(=O)OC(C)(C)C)c3ccccc3)C(C)=C1C2(C)C [CBT succinate, cabazitaxel succinate]",CBT concentration (individual mouse),"[1]; analyte Cabazitaxel in mouse plasma, CBT succinate in 50% PEG300 formulation, time 8 h, 15 mg/kg",BLOQ
same,CBT concentration (individual mouse),[1]; [5],BLOQ
same,"CBT concentration, Mean",[1]; [5],BLOQ
same,concentration at 0.083 h,"[1]; male, ICR, mouse, plasma, iv, 15 mg/kg, mouse plasma, CBT succinate in 50% PEG300 formulation, time 0.083 h, read-out: CBT succinate concentration (individual mouse)",5980 ng/mL
same,concentration at 0.083 h,"[1]; male, ICR, mouse, plasma, iv, 15 mg/kg, mouse plasma, CBT succinate in 50% PEG300 formulation, time 0.083 h, read-out: CBT succinate concentration, Mean",5750 ng/mL
same,concentration at 0.167 h,"[1]; male, ICR, mouse, plasma, iv, 15 mg/kg, mouse plasma, CBT succinate in 50% PEG300 formulation, time 0.167 h, read-out: CBT succinate concentration (individual mouse)",3100 ng/mL
same,concentration at 0.167 h,"[1]; male, ICR, mouse, plasma, iv, 15 mg/kg, mouse plasma, CBT succinate in 50% PEG300 formulation, time 0.167 h, read-out: CBT succinate concentration, Mean",3030 ng/mL
same,concentration at 0.5 h,"[1]; male, ICR, mouse, plasma, iv, 15 mg/kg, mouse plasma, CBT succinate in 50% PEG300 formulation, time 0.5 h",386 ng/mL
same,concentration at 1 h,"[1]; male, ICR, mouse, plasma, iv, 15 mg/kg, mouse plasma, CBT succinate in 50% PEG300 formulation, time 1 h",50 ng/mL
same,concentration at 2 h,"[1]; male, ICR, mouse, plasma, iv, 15 mg/kg, mouse plasma, CBT succinate in 50% PEG300 formulation, time 2 h, read-out: CBT succinate concentration (individual mouse)",15 ng/mL
same,concentration at 2 h,"[1]; male, ICR, mouse, plasma, iv, 15 mg/kg, mouse plasma, CBT succinate in 50% PEG300 formulation, time 2 h, read-out: CBT succinate concentration, Mean",15 ng/mL
same,C0,[1]; [6],10800 ng/mL
same,MRT,[1]; [6],9.6 min
same,AUC(0-inf),"[1]; male, ICR, mouse plasma, CBT succinate in 50% PEG300 formulation, read-out: AUCInf of CBT Succinate",1770 ng·h/mL
same,AUC(0-t),"[1]; male, ICR, mouse plasma, CBT succinate in 50% PEG300 formulation, read-out: AUClast of CBT Succinate",1770 ng·h/mL
same,clearance,"[1]; male, ICR, mouse plasma, CBT succinate in 50% PEG300 formulation, read-out: CL of CBT Succinate",141 mL/min/kg
same,Vd,"[1]; male, ICR, mouse plasma, CBT succinate in 50% PEG300 formulation, read-out: Vss of CBT Succinate",1.38 L/kg
same,half-life,"[1]; male, ICR, mouse plasma, CBT succinate in 50% PEG300 formulation, read-out: t1/2 of CBT Succinate (converted)",13.8 min
same,bioconversion of CBT succinate to CBT,"[1]; mice, 50% PEG300 formulation",very rapidly
same,AUC Extr of CBT Succinate,[1]; [7],0.28%
same,AUC/D of CBT Succinate,[1]; [7],118 kg·ng·h/mL/mg
same,CBT succinate concentration (individual mouse),"[1]; mouse plasma, CBT succinate in 50% PEG300 formulation, time 0.083 h, 15 mg/kg",5803 ng/mL and 5480 ng/mL
same,CBT succinate concentration (individual mouse),"[1]; mouse plasma, CBT succinate in 50% PEG300 formulation, time 0.167 h, 15 mg/kg",3144 ng/mL and 2857 ng/mL
same,CBT succinate concentration (individual mouse),"[1]; mouse plasma, CBT succinate in 50% PEG300 formulation, time 0.5 h, 15 mg/kg",541 ng/mL and 397 ng/mL and 221 ng/mL
same,CBT succinate concentration (individual mouse),"[1]; mouse plasma, CBT succinate in 50% PEG300 formulation, time 1 h, 15 mg/kg",25 ng/mL and 51 ng/mL and 73 ng/mL
same,CBT succinate concentration (individual mouse),"[1]; mouse plasma, CBT succinate in 50% PEG300 formulation, time 2 h, 15 mg/kg",BLOQ
same,CBT succinate concentration (individual mouse),[1]; [8],BLOQ
same,"CBT succinate concentration, Mean",[1]; [8],BLOQ
same,CBT succinate concentration (individual mouse),[1]; [9],BLOQ
same,"CBT succinate concentration, Mean",[1]; [9],BLOQ
same,CBT succinate concentration (individual mouse),[1]; [10],BLOQ
same,"CBT succinate concentration, Mean",[1]; [10],BLOQ
same,hydrolysis when dissolved in the aqueous preclinical formulation,[2],prone to hydrolysis
same,solubility,[3],120 µg/mL
CO[C@H]1C(=O)[C@]2(C)[C@@H](OC)C[C@H]3OC[C@@]3(OC(C)=O)[C@H]2[C@H](OC(=O)c2ccccc2)[C@]2(O)C[C@H](OC(=O)[C@H](O)[C@@H](NC(=O)OC(C)(C)C)c3ccccc3)C(C)=C1C2(C)C [cabazitaxel],solubility,[4],almost insoluble
